# Assays:
# subject's mood [1] = test: Actimood scoring (correlation of EmoChar and IRT values); assay type: in vivo, human
# Description: (§1) 1. Sensorial and Emotional Evaluation of Fragrance Raw Materials Each fragrance was evaluated by 30 subjects. At each appointment, the subject discovered fragrances in one sequence of four fragrances and two sequences of three fragrances separated by a 10-minute break.
# (§2) For each fragrance, the subject discovered each fragrance on a card strip for 10 seconds. Between each product, a rest-period of 2 minutes was carried out during which the subject smelt their own body odour by smelling their wrist and the subject drank a little bit of water as well.
# Emochar™ is a system of emotional characterization, scoring 7 main emotional dimensions from 0 to 10: • Stimulation: focus, attention, and awakening. • Relaxation: serenity, relaxation and appeasing. • Sensual: arousing, sexy and erotic. • Pleasure: liking, “gourmand” and satisfaction. • Tenderness: gentleness and softness. • Joy: excitement, fun and enthusiasm. • Self-esteem: confidence and assurance
# Actimood scores are based on a correlation of EmoChar™ and IRT values. The scores are classified on a scale from 0 (low impact on subject's mood) to 3 (high impact on subject's mood).
# Each score is obtained according to an algorithm, mixing verbal and non-verbal responses of volunteers to a specific product, or stimulus in a given context. The algorithm was developed from extensive field data, and in accordance with scientific literature and validated biobehavioral patterns associated to various emotional states.
# subject's mood [2] = test: Implicit response test (IRT); assay type: in vivo, human; set-up: scale not given here
# Description: as §1
# During those appointments, the subjects smelt the fragrances in a random way.
# as §2
# The evaluation is carried out in standardized lighting conditions and under a monitored temperature (temperature 21±1.5° C.).
# Implicit response tests (IRTs) are a family of tests and assess the subjects' immediate, “gut instinct” responses the fragrance raw materials.
# The alleged underlying processes are based on how neurosciences describe the way our brain processes information. Indeed, our brain processes information through two systems: System 2, which is slow and processes conscious information, and System 1, which is fast and processes non-conscious information.
# The IRT tests are performed at a computer, where the following words appear on the computer screen: • Energizing • Relaxing • Attractive • Sensual • Joyful • Protective • Confident • Fresh • Well-being
# The subject has to click on the screen with the computer mouse to indicate their accordance or not of the word with the tested fragrance. In addition, the times to click the button are recorded.
# [3] = attractive mood (Table 11), scale 0 (low impact) to 3 (high impact)
# [4] = energizing mood (Table 7), scale 0 (low impact) to 3 (high impact)
# [5] = fresh mood (Table 12), scale 0 (low impact) to 3 (high impact)
# [6] = joyful mood (Table 6), scale 0 (low impact) to 3 (high impact)
# [7] = ingredients of the fragrance composition conveying a fresh mood (Table 1)
# [8] = ingredients of the fragrance composition conveying an attractive mood (Table 2)
# [9] = relaxing and sleep enhancing mood (Composition 1, Table 3), scale 0 (low impact on subject's mood) to 3 (high impact)
# [10] = well-being mood (Table 10), scale 0 (low impact) to 3 (high impact)
# [11] = self-confident mood (Table 9), scale 0 (low impact) to 3 (high impact)
# [12] = relaxing mood (Composition 2, Table 4), scale 0 (low impact) to 3 (high impact)
# [13] = sensual mood (Table 8), scale 0 (low impact) to 3 (high impact)
# [14] = protective mood (Table 5), scale 0 (low impact) to 3 (high impact)
smiles,measurement,setting,value
"C=CC(C)(O)CCC=C(C)CC (mixture of isomers) [ETHYL LINALOOL, (6E)-3,7-dimethylnona-1,6-dien-3-ol]",Actimood score,subject's mood [1]; [3],2
same,Actimood score,subject's mood [1]; [4],1
same,Actimood score,subject's mood [1]; [5],3
same,Actimood score,subject's mood [1]; [6],2
same,IRT Score,subject's mood [2]; [7],1682
same,IRT Score,subject's mood [2]; [8],565
"CCCCC[C@@H]1C(=O)CC[C@H]1CC(=O)OC (racemic) [HEDIONE, methyl-2-[RAC-(1S,2S)-3-oxo-2-pentyl-cyclopentyl]acetate]",Actimood score,subject's mood [1]; [5],2
same,Actimood score,subject's mood [1]; [6],0
same,Actimood score,subject's mood [1]; [9],2
same,Actimood score,subject's mood [1]; [10],0
"CC(C)C1CC=C(CCC=O)CC1 (single isomer, unassigned; (+)) [LILYBELLE ®, (+)-3-(4-Isopropylcyclohexen-1-yl)propanal]",Actimood score,subject's mood [1]; [5],3
same,Actimood score,subject's mood [1]; [10],0
"CC(C=O)Cc1ccc2c(c1)OCO2 (centres unmarked) [3-(1,3-benzodioxol-5-yl)-2-methyl-propanal]",IRT Score,subject's mood [2]; [7],742
"CCCCCCCC1CCC(=O)O1 (centres unmarked) [ALDEHYDE C14 SO-CALLED, 5-heptyltetrahydrofuran-2-one]",Actimood score,subject's mood [1]; [11],2
"COC(OC)C(C)(C)CC=C(C)C [AMAROCIT ®, 6,6-Dimethoxy-2,5,5-trimethylhex-2-ene]",Actimood score,subject's mood [1]; [4],3
same,Actimood score,subject's mood [1]; [5],3
same,IRT Score,subject's mood [2]; [7],1763
"O=C1CCCCCCCC=CCCCCCCO1 [AMBRETTOLIDE HC SUPREME, Oxacycloheptadec-10-en-2-one]",Actimood score,subject's mood [1]; [9],2
"CCCCCCC1OC(=O)CC1C (centres unmarked) [APRIFLOREN ®, 5-Hexyldihydro-4-methylfuran-2(3H)-one]",Actimood score,subject's mood [1]; [6],2
same,Actimood score,subject's mood [1]; [11],2
"O=C(OCc1ccccc1)c1ccccc1O [BENZYL SALICYLATE, benzyl 2-hydroxybenzoate]",Actimood score,subject's mood [1]; [11],1
"CC(C)(C)c1ccc(CCC=O)cc1 [BOURGEONAL, 3-(4-tert-butylphenyl)propanal]",Actimood score,subject's mood [1]; [3],3
same,Actimood score,subject's mood [1]; [12],3
same,Actimood score,subject's mood [1]; [11],2
same,IRT Score,subject's mood [2]; [8],1045
"Cc1ccc2c(c1)OCC(=O)CO2 [CALONE, 7-methyl-1,5-benzodioxepin-3-one]",Actimood score,subject's mood [1]; [4],3
same,Actimood score,subject's mood [1]; [5],3
same,Actimood score,subject's mood [1]; [6],3
same,Actimood score,subject's mood [1]; [10],3
same,IRT Score,subject's mood [2]; [7],2830
"C=C1CCC=C(C)CCC2C1CC2(C)C (centres unmarked) [CARYOPHYLLENE NAT. RECT., 4,11,11-trimethyl-8-methylene-bicyclo[7.2.0]undec-4-ene]",Actimood score,subject's mood [1]; [12],3
same,Actimood score,subject's mood [1]; [11],3
"CC(C)=CCC/C(C)=C/C=O [CITRAL FF, (2E)-3,7-Dimethylocta-2,6-dienal]",Actimood score,subject's mood [1]; [4],3
same,Actimood score,subject's mood [1]; [5],3
same,IRT Score,subject's mood [2]; [7],2393
"CC(C)=CCCC(C)CCO (centres unmarked) [CITRONELLOL 950, 3,7-dimethyloct-6-en-1-ol]",Actimood score,subject's mood [1]; [11],1
"O=c1ccc2ccccc2o1 [COUMARIN, chromen-2-one]",Actimood score,subject's mood [1]; [3],3
same,Actimood score,subject's mood [1]; [12],3
same,IRT Score,subject's mood [2]; [8],1347
"CC(C=O)Cc1ccc(C(C)C)cc1 (centres unmarked) [CYCLAMEN ALDEHYDE, 3-(4-isopropylphenyl)-2-methyl-propanal]",Actimood score,subject's mood [1]; [5],3
same,IRT Score,subject's mood [2]; [7],1005
"C=CC(C)CCCC(C)(C)O (centres unmarked) [DIHYDRO MYRCENOL, 2,6-dimethyloct-7-en-2-ol]",Actimood score,subject's mood [1]; [3],3
same,Actimood score,subject's mood [1]; [4],3
same,Actimood score,subject's mood [1]; [13],3
same,IRT Score,subject's mood [2]; [8],1599
"CCCCCCCCC1CCC(=O)O1 (centres unmarked) [DODECALACTONE GAMMA 10% DPG, gamma-Dodecalactone]",Actimood score,subject's mood [1]; [9],1
"O=C1CCCCCCCCCCCC(=O)OCCO1 [ETHYLENE BRASSYLATE, 1,4-dioxacycloheptadecane-5,17-dione]",Actimood score,subject's mood [1]; [3],3
same,Actimood score,subject's mood [1]; [9],2
same,Actimood score,subject's mood [1]; [11],2
same,Actimood score,subject's mood [1]; [13],3
same,IRT Score,subject's mood [2]; [8],1177
"COC(=O)c1c(C)cc(O)c(C)c1O [EVERNYL 10% DPG, Methyl-2,4-dihydroxy-3,6-dimethyl-benzoate]",Actimood score,subject's mood [1]; [9],1
"CCc1ccc(CC(C)(C)C=O)cc1 [FLORALOZONE, 3-(4-ethylphenyl)-2,2-dimethylpropanal]",Actimood score,subject's mood [1]; [5],3
"COc1ccc(CCC(C)=O)cc1 [FRAMBINON ®, Methoxyphenylbutanone]",Actimood score,subject's mood [1]; [6],3
"C=CCCCCOC(=O)C(C)CC (centres unmarked) [FRUCTATE ®, Hex-5-enyl 2-methylbutanoate]",Actimood score,subject's mood [1]; [13],0
"CC1COCc2cc3c(cc21)C(C)(C)C(C)C3(C)C (centres unmarked) [GALAXOLIDE PURE, 4,6,6,7,8,8-hexamethyl-1,3,4,7-tetrahydrocyclopenta[G]isochromene]",Actimood score,subject's mood [1]; [14],2
same,Actimood score,subject's mood [1]; [12],3
"O=Cc1ccc2c(c1)OCO2 [HELIOTROPIN, 1,3-benzodioxole-5-carbaldehyde]",Actimood score,subject's mood [1]; [10],2
"CCC(=O)OCC(C)(C)OC(C)C1CCCC(C)(C)C1 (centres unmarked) [HELVETOLIDE, [2-[1-(3,3-dimethylcyclohexyl)ethoxy]-2-methyl-propyl]propanoate]",Actimood score,subject's mood [1]; [14],2
same,Actimood score,subject's mood [1]; [9],3
same,Actimood score,subject's mood [1]; [12],3
same,Actimood score,subject's mood [1]; [11],2
"CC/C=C/CCO [HEXENOL CIS-3 10% DPG, Hexenol]",Actimood score,subject's mood [1]; [10],0
"CC/C=C\CCOC(C)=O [HEXENYL ACETATE CIS-3 10% DPG, Hexenyl acetat]",Actimood score,subject's mood [1]; [10],0
"CCCCCCOC(C)=O [HEXYL ACETATE, hexyl acetate]",Actimood score,subject's mood [1]; [4],1
same,Actimood score,subject's mood [1]; [6],2
"CC(CC=O)CCCC(C)(C)O (centres unmarked) [HYDROXY CITRONELLAL, 7-hydroxy-3,7-dimethyl-octanal]",Actimood score,subject's mood [1]; [3],3
same,Actimood score,subject's mood [1]; [11],1
same,IRT Score,subject's mood [2]; [8],1283
"CC(=O)/C=C/C1C(C)=CCCC1(C)C (stereo not drawn) [IONONE ALPHA, (E)-4-(2,6,6-trimethylcyclohex-2-en-1-yl)but-3-en-2-one]",Actimood score,subject's mood [1]; [12],3
same,Actimood score,subject's mood [1]; [11],1
"CC(=O)/C=C/C1=C(C)CCCC1(C)C [IONONE BETA, (E)-4-(2,6,6-trimethylcyclohexen-1-yl)but-3-en-2-one]",Actimood score,subject's mood [1]; [6],3
same,Actimood score,subject's mood [1]; [10],3
"CC(=O)C1(C)CC2=C(CCCC2(C)C)CC1C (centres unmarked) [ISO E SUPER, 1-[2,3,8,8-tetramethyl-1,3,4,5,6,7-hexanhydronaphthalen-2-yl]ethanone]",Actimood score,subject's mood [1]; [6],2
same,Actimood score,subject's mood [1]; [13],2
same,Actimood score,subject's mood [1]; [10],2
"CC/C=C\CCOC(=O)OC [LEAFOVERT ®, (Z)-Hex-3-en-1-yl methyl carbonate]",Actimood score,subject's mood [1]; [6],3
same,Actimood score,subject's mood [1]; [11],0
same,Actimood score,subject's mood [1]; [10],2
"O=C1CCCCCCCCCCCCCCO1 [MACROLIDE ® SUPRA, Pentadecan-15-olide]",Actimood score,subject's mood [1]; [3],3
same,Actimood score,subject's mood [1]; [14],2
same,Actimood score,subject's mood [1]; [12],3
same,Actimood score,subject's mood [1]; [10],2
same,IRT Score,subject's mood [2]; [8],1944
"Cc1cccc(CC(C)(C)CO)c1 [MAJANTOL ®, beta,beta-3-Trimethyl-benzenepropanol]",Actimood score,subject's mood [1]; [11],2
same,Actimood score,subject's mood [1]; [13],2
"CCCC(C)C(=O)OCC (centres unmarked) [MANZANATE, ethyl-2-methylpentanoate]",Actimood score,subject's mood [1]; [6],3
"COC(=O)c1ccccc1N [METHYL ANTHRANILATE, Methyl anthranilate]",Actimood score,subject's mood [1]; [11],0
"CC(=O)OC1CCC(C(C)(C)C)CC1 (centres unmarked) [ORYCLON HC, (4-tert-butylcyclohexyl) acetate]",Actimood score,subject's mood [1]; [9],1
"OCCc1ccccc1 [PHENYLETHYL ALCOHOL BA FREE, 2-phenylethanol]",Actimood score,subject's mood [1]; [9],2
same,Actimood score,subject's mood [1]; [11],1
"CC(C)CCC1CCC(O)CC1 (centres unmarked) [SYMROSE ®, 4-Isopentylcyclohexanol]",Actimood score,subject's mood [1]; [9],2
"CC(=O)C1CC/C(C)=C/CC/C(C)=C/C/C=C/1C (centres unmarked) [TRIMOFIX O, 1-[(2E,5E,9E)-2,6,10-trimethylcyclododeca-2,5,9-trien-1-yl]ethanone]",Actimood score,subject's mood [1]; [14],2
"CC1=CC(C)C(C=O)CC1 (centres unmarked) [VERTOCITRAL, 2,4-Dimethylcyclohex-3-ene-1-carbaldehyde]",Actimood score,subject's mood [1]; [4],1
same,Actimood score,subject's mood [1]; [10],0
